This is an account of results in article PMC3021692, “Synthesis and Pharmacological Evaluation of Novel Schiff Base Analogues of 3-(4-amino) Phenylimino) 5-fluoroindolin-2-one” (Journal of Young Pharmacists : JYP, 2010).

Holding throughout (type): in vivo
Data set [1] relates to Albino rats of Wistar strain. The experiment in a line: Evaluation of ulcerogenicity index (pylorus ligation). On the set-up: scale not given here. The note with it: pylorus ligated on fourth day, mean ± SD (n = 6). Here is the method: The synthesized compounds were evaluated for analgesic, anti-inflammatory, and ulcerogenic index. […] The test compounds and the standard drugs were administered in the form of a suspension (1% carboxymethyl cellulose as a vehicle) by oral route for analgesic and anti-inflammatory but for ulcerogenicity studies by intraperitoneally as suspension in 10% v/v Tween-20. Each group consisted of six animals. The animals were procured from the C. L. Baid Metha College of pharmacy, Chennai, and were maintained in colony cages at 25 ±2°C, relative humidity of 45-55%, under a 12-h light and dark cycle; they were fed standard animal feed. All the animals were acclimatized for a week before use. The Institutional Animal Ethics Committee approved the protocol adopted for the experimentation of animals. Ulceration in rats was induced as described by Goyal et al. Albino rats of Wistar strain weighing 150-200 g of either sex were divided into various groups each of six animals.[16] Control group of animals was administered only with 10% v/v Tween 80 suspension intraperitonially. One group was administered with aspirin (German Remedies) intraperitoneally at a dose of 200 mg/kg once daily for 3 days. The remaining group of animals was administered with test compounds intraperitoneally at a dose of 20 mg/kg. On fourth day, Pylorus was ligated as per the method of Shay et al.[17] Animals were fasted for 36 h before the pylorus ligation procedure. Four hours after the ligation, animals were sacrificed. The stomach was removed and opened along with the greater curvature. Ulcer index was determined by the method of Ganguly and Bhatnagar.[18]

For data set [2], the system named is Wistar albino mice. Description: Analgesic activity, tail-flick technique. As to conditions: for Percent analgesic activity: mean ± SD (n = 6); for Analgesic activity (in words): tail-flick, structure-activity comparison within the series / vs diclofenac sodium. On the procedure: (§1) The synthesized compounds were evaluated for analgesic, anti-inflammatory, and ulcerogenic index. […] The test compounds and the standard drugs were administered in the form of a suspension (1% carboxymethyl cellulose as a vehicle) by oral route for analgesic and anti-inflammatory but for ulcerogenicity studies by intraperitoneally as suspension in 10% v/v Tween-20. Each group consisted of six animals. The animals were procured from the C. L. Baid Metha College of pharmacy, Chennai, and were maintained in colony cages at 25 ±2°C, relative humidity of 45-55%, under a 12-h light and dark cycle; they were fed standard animal feed. All the animals were acclimatized for a week before use. The Institutional Animal Ethics Committee approved the protocol adopted for the experimentation of animals.
The analgesic activity was performed by tail-flick technique using Wistar albino mice (25-35 g) of either sex selected by the random sampling technique.[1314] Diclofenac sodium at a dose level of 10 mg/kg and 20 mg/kg was administered orally as reference drug for comparison. The test compounds at two dose levels (10, 20 mg/kg) were administered orally. The reaction time was recorded at 30 min, 1, 2, and 3 h after the treatment, and cut-off time was 10 s. The percent analgesic activity (PAA) was calculated by the following formula, where T1 is the reaction time (s) before treatment, and T2 is the reaction time (s) after treatment.

For data set [3], the system named is carrageenan-induced paw edema in rats. Description: Anti-inflammatory activity, carrageenan-induced paw edema test. The note with it: for Percent anti-inflammatory activity (percent inhibition of paw edema): mean ± SD (n = 6); for Anti-inflammatory activity compared to reference standard diclofenac sodium (in words): carrageenan-induced paw edema in rats. Here is the method:
as §1
Anti-inflammatory activity was evaluated by carrageenan-induced paw edema test in rats.[15] Diclofenac sodium 10, 20 mg/kg was administered as a standard drug for comparison. The test compounds were administered at two dose levels (10 mg/kg, 20 mg/kg). The paw volumes were measured using the mercury displacement technique with the help of a plethysmograph (Model PLYAN; Buxco, USA) immediately before and 30 min, 1, 2, and 3 h after carrageenan injection. The percent inhibition of paw edema was calculated using the following formula.
Percent inhibition I = 100 1− (a−x) / (b−y)
Where x is the mean paw volume of rats before the administration of carrageenan and test compounds or reference compound (test group), a is the mean paw volume of rats after the administration of carrageenan in the test group (drug treated), b is the mean paw volume of rats after the administration of carrageenan in the control group, y is the mean paw volume of rats before the administration of carrageenan in the control group.

Setting [4] is: 10 mg/kg oral, 30 min after treatment.
Where [5] appears, read: 10 mg/kg oral, 1 h after treatment.
[6] abbreviates: 10 mg/kg oral, 2 h after treatment.
Where [7] appears, read: 10 mg/kg oral, 3 h after treatment.
[8] abbreviates: 20 mg/kg oral, 30 min after treatment.
The mark [9] stands for this setting: 20 mg/kg oral, 1 h after treatment.
Setting [10] is: 20 mg/kg oral, 2 h after treatment.
[11] abbreviates: 20 mg/kg oral, 3 h after treatment.
Where [12] appears, read: 10 mg/kg oral, 30 min after carrageenan.
[13] abbreviates: 10 mg/kg oral, 1 h after carrageenan.
Setting [14] is: 10 mg/kg oral, 2 h after carrageenan.
[15] abbreviates: 10 mg/kg oral, 3 h after carrageenan.
Setting [16] is: 20 mg/kg oral, 30 min after carrageenan.
Where [17] appears, read: 20 mg/kg oral, 1 h after carrageenan.
Where [18] appears, read: 20 mg/kg oral, 2 h after carrageenan.
The mark [19] stands for this setting: 20 mg/kg oral, 3 h after carrageenan.
The mark [20] stands for this setting: test compounds 20 mg/kg intraperitoneally.

On to `CC(=O)Oc1ccccc1C(=O)O` [Aspirin, aspirin, reference compound], for which the Ulcer index in data set [1] (aspirin 200 mg/kg intraperitoneally once daily for 3 days) is recorded as 1.73 ± 0.39; in data set [1] (aspirin 200 mg/kg intraperitoneally once daily for 3 days, listed as aspirin), 1.73 ± 0.41.

Regarding `CCC(C)=Nc1ccc(N=C2C(=O)Nc3ccc(F)cc32)cc1` [Compound N1], the Percent analgesic activity in data set [2] (setting [4]) came out at 47 ± 1.25 %; in data set [2] (setting [5]), 51 ± 1.32 %; in data set [2] (setting [6]), 53 ± 1.15 %; in data set [2] (setting [7]) it was 31 ± 1.96 %; in data set [2] (setting [8]), 54 ± 1.36 %; in data set [2] (setting [9]), 58 ± 1.96 %. Besides, the Percent analgesic activity in data set [2] (setting [10]) is 60 ± 1.16 %; in data set [2] (setting [11]), 47 ± 1.45 %. Further, the “Percent anti-inflammatory activity (percent inhibition of paw edema)” value in data set [3] (setting [12]) is listed as 39 ± 1.25 %; in data set [3] (setting [13]) it was 45 ± 1.32 %; in data set [3] (setting [14]) it was 52 ± 1.15 %; in data set [3] (setting [15]), 32 ± 1.96 %; in data set [3] (setting [16]), 44 ± 1.36 %; in data set [3] (setting [17]) it was 52 ± 1.96 %. Besides, the “Percent anti-inflammatory activity (percent inhibition of paw edema)” value in data set [3] (setting [18]) was found to be 58 ± 1.32 %; in data set [3] (setting [19]) it was 37 ± 1.45 %. In addition, in data set [1] (setting [20]), the Ulcer index was 0.84 ± 1.43.

Take `CCC(CC)=Nc1ccc(N=C2C(=O)Nc3ccc(F)cc32)cc1` [Compound N2]: the Percent analgesic activity was determined as 50 ± 1.25 % in data set [2] (setting [4]); 56 ± 1.32 % in data set [2] (setting [5]); 60 ± 1.15 % in data set [2] (setting [6]); 45 ± 1.68 % in data set [2] (setting [7]); 57 ± 1.44 % in data set [2] (setting [8]); 60 ± 1.90 % in data set [2] (setting [9]). The Percent analgesic activity in data set [2] (setting [10]) was found to be 64 ± 1.26 %; in data set [2] (setting [11]) it was 50 ± 1.67 %. For the same compound, the “Percent anti-inflammatory activity (percent inhibition of paw edema)” value was 42 ± 1.25 % in data set [3] (setting [12]); 50 ± 1.38 % in data set [3] (setting [13]); 53 ± 1.15 % in data set [3] (setting [14]); 45 ± 1.68 % in data set [3] (setting [15]); 51 ± 1.44 % in data set [3] (setting [16]); 57 ± 1.72 % in data set [3] (setting [17]). The “Percent anti-inflammatory activity (percent inhibition of paw edema)” value is 62 ± 1.26 % in data set [3] (setting [18]) and 54 ± 1.67 % in data set [3] (setting [19]). Further, the “Anti-inflammatory activity compared to reference standard diclofenac sodium (in words)” value in data set [3] is listed as “equipotent”. This compound yielded a Ulcer index in data set [1] (setting [20]) of 0.97 ± 1.53.

Regarding `CCCC(C)=Nc1ccc(N=C2C(=O)Nc3ccc(F)cc32)cc1` [Compound N3], the Percent analgesic activity in data set [2] (setting [4]) was 55 ± 1.75 %; in data set [2] (setting [5]), 62 ± 1.82 %; in data set [2] (setting [6]), 64 ± 1.35 %; in data set [2] (setting [7]) it was 46 ± 1.96 %; in data set [2] (setting [8]) it was 62 ± 1.59 %; in data set [2] (setting [9]), 66 ± 1.77 %. For the same compound, the Percent analgesic activity was determined as 69 ± 1.24 % in data set [2] (setting [10]) and 52 ± 1.45 % in data set [2] (setting [11]). Moreover, the “Analgesic activity (in words)” value in data set [2] is given as “good activity”. Besides, the “Percent anti-inflammatory activity (percent inhibition of paw edema)” value worked out at 49 ± 1.75 % in data set [3] (setting [12]); 54 ± 1.82 % in data set [3] (setting [13]); 60 ± 1.35 % in data set [3] (setting [14]); 43 ± 1.96 % in data set [3] (setting [15]); 54 ± 1.59 % in data set [3] (setting [16]); 62 ± 1.77 % in data set [3] (setting [17]). In addition, the figures for the “Percent anti-inflammatory activity (percent inhibition of paw edema)” value in data set [3] (setting [18]) and in data set [3] (setting [19]) were 66 ± 1.24 % and 52 ± 1.45 %, respectively. Also, the “Anti-inflammatory activity compared to reference standard diclofenac sodium (in words)” value in data set [3] was “moderately more potent”. Moreover, in data set [1] (setting [20]), the Ulcer index is listed as 0.85 ± 1.28.

Regarding `O=C1Nc2ccc(F)cc2C1=Nc1ccc(N=C2CCCCC2)cc1` [Compound N4], the Percent analgesic activity was 48 ± 1.28 % in data set [2] (setting [4]); 52 ± 1.52 % in data set [2] (setting [5]); 54 ± 1.15 % in data set [2] (setting [6]); 35 ± 1.76 % in data set [2] (setting [7]); 55 ± 1.36 % in data set [2] (setting [8]); 57 ± 1.66 % in data set [2] (setting [9]). The results for the Percent analgesic activity in data set [2] (setting [10]) and in data set [2] (setting [11]) were 59 ± 1.19 % and 44 ± 1.65 %, respectively. Also, in data set [2], the “Analgesic activity (in words)” value is “moderate decrease in activity”. Further, the “Percent anti-inflammatory activity (percent inhibition of paw edema)” value in data set [3] (setting [12]) stood at 38 ± 1.82 %; in data set [3] (setting [13]), 50 ± 1.24 %; in data set [3] (setting [14]) it was 55 ± 1.15 %; in data set [3] (setting [15]), 35 ± 1.76 %; in data set [3] (setting [16]), 45 ± 1.36 %; in data set [3] (setting [17]), 56 ± 1.83 %. Besides, the “Percent anti-inflammatory activity (percent inhibition of paw edema)” value was found to be 60 ± 1.19 % in data set [3] (setting [18]) and 44 ± 1.65 % in data set [3] (setting [19]). In addition, the Ulcer index in data set [1] (setting [20]) worked out at 0.89 ± 1.26.

Consider `CC(=Nc1ccc(N=C2C(=O)Nc3ccc(F)cc32)cc1)c1ccccc1` [Compound N5], for which the Percent analgesic activity in data set [2] (setting [4]) stood at 44 ± 1.76 %; in data set [2] (setting [5]), 49 ± 1.88 %; in data set [2] (setting [6]), 52 ± 1.55 %; in data set [2] (setting [7]) it was 32 ± 1.26 %; in data set [2] (setting [8]), 52 ± 1.33 %; in data set [2] (setting [9]), 55 ± 1.95 %. The Percent analgesic activity in data set [2] (setting [10]) is on record as 59 ± 1.36 %; in data set [2] (setting [11]) it was 42 ± 1.48 %. Besides, the “Analgesic activity (in words)” value in data set [2] is reported as “moderate decrease in activity”. The “Percent anti-inflammatory activity (percent inhibition of paw edema)” value in data set [3] (setting [12]) is reported as 39 ± 1.56 %; in data set [3] (setting [13]) it was 46 ± 1.88 %; in data set [3] (setting [14]), 52 ± 1.65 %; in data set [3] (setting [15]), 32 ± 1.26 %; in data set [3] (setting [16]), 45 ± 1.73 %; in data set [3] (setting [17]), 54 ± 1.95 %. Further, the “Percent anti-inflammatory activity (percent inhibition of paw edema)” value in data set [3] (setting [18]) turned out to be 59 ± 1.36 %; in data set [3] (setting [19]) it was 42 ± 1.48 %. For the same compound, the Ulcer index in data set [1] (setting [20]) is 0.82 ± 1.32.
